# From patent US8071141B2, “Compositions for preventing or ameliorating multiple risk factor syndromes” (priority 2000, dated 2011)
# Counter-ions that a name gives are not always drawn. Like-named read-outs stand apart in the source and are kept apart here.
# Tests used:
# [1] = test system: spontaneously hypertensive rats (SHR); test: Test Example 5: efficacy in spontaneously hypertensive rats; assay type: in vivo; conditions: licorice extract (Preparation Example 3) 300 mg/kg/day or enalapril maleate 20 mg/kg/day orally
# Method: As a positive control, enalapril maleate, an antihypertensive agent, was used.
# During the period, the mice had free access to food (CRF-1, Oriental Yeast Co.) and water.
# On the day immediately preceding the start of treatment and on day 7, day 14, and day 21 of treatment, the blood pressure was measured at the tail artery using a non-invasive automatic hemomanometer (BP-97A, Softron Co., Ltd.). The measurement of blood pressure was performed before each administration of the sample.
# KK-Ay mice [2] = test: Test Example 7: efficacy of turmeric extract in type II diabetic model mice; assay type: in vivo; conditions: pioglitazone 0.04% or turmeric extract (Preparation Example 5) 0.5% in food
# Source text: (§1) As a positive control, the antidiabetic agent pioglitazone was used. […] As pioglitazone, Actos Tab.
# KK-Ay mice [3] = test: Test Example 4: ameliorating effect on diabetes mellitus in type II diabetic model mice; assay type: in vivo; conditions: pioglitazone 0.02% or licorice extract (Preparation Example 2) 0.2% in food
# Source text: As a positive control, the antidiabetic agent pioglitazone was used.
# The mice had free access to food for 7 days. […] For the determination of blood glucose, the simple blood glucose test Glutest Ace (Sanwa Kagaku Kenkyusho Co., Ltd.) was used.
# KK-Ay mice [4] = test: Test Example 3: preventing effect on diabetes mellitus in type II diabetic model mice-2; assay type: in vivo; conditions: pioglitazone 0.04% or licorice extract (Preparation Example 2) 0.2% in food
# Source text: Regarding troglitazone, Noscal Tab.
# As a positive control, the antidiabetic agent pioglitazone was used. As pioglitazone, Actos Tab. […] For the determination of blood glucose, the simple blood glucose test Glutest Ace (Sanwa Kagaku Kenkyusho Co., Ltd.) was used.
# KK-Ay mice [5] = test: Test Example 9: efficacy of clove extract in type II diabetic model mice; assay type: in vivo; conditions: pioglitazone 0.02% or clove extract (Preparation Example 7) 0.5% in food
# Source text: as §1
# KK-Ay mice [6] = conditions: for Blood glucose: troglitazone 0.2% or licorice extract (Preparation Example 1) 0.15% in food
# Method: As a positive control, the antidiabetic agent troglitazone was used.
# Regarding troglitazone, Noscal Tab. 200 (200 mg of troglitazone in each tablet; Sankyo Co., Ltd.) was pulverized in an agate mortar and added to the normal food at a final concentration of 0.2%.
# During the feeding period, small samples of blood were taken weekly from the mouse tail vein and the blood glucose was determined with the simple blood glucose test Novo Assist Plus (Novo Nordisk Pharma Ltd.).
# At the end of the feeding period, the mice were fasted overnight and the abdomen was opened under ether anesthesia.
# The blood was withdrawn from the abdominal aorta and the liver was excised and weighed. In addition, Sogo Ikagaku Kenkyusho Co., Ltd. was entrusted with analyses for serum total cholesterol (T-CHO), triglyceride (TG), free fatty acid (NEFA), GOT, GPT, LAP, cholinesterase (ChoE), total protein (TP-S), albumin (ALB-S), and A/G ratio.
# [7] = end of 4-week feeding, overnight fast, troglitazone 0.2% or licorice extract 0.15% in food
smiles,measurement,setting,value
"CCOC(=O)[C@H](CCc1ccccc1)N[C@@H](C)C(=O)N1CCC[C@H]1C(=O)O [Enalapril maleate, enalapril maleate]",Blood pressure,"[1]; Before start, tail artery",111 ± 2.5 mmHg
same,Blood pressure,"[1]; Day 7, tail artery",118 ± 3.2 mmHg
same,Blood pressure,"[1]; Day 14, tail artery",119 ± 3.4 mmHg
same,Blood pressure,"[1]; Day 21, tail artery",134 ± 3.1 mmHg
"CCc1ccc(CCOc2ccc(CC3SC(=O)NC3=O)cc2)nc1 (stereo not shown) [Pioglitazone, pioglitazone]",Blood glucose,KK-Ay mice [2]; 1 week,163 ± 23 mg/dL
same,Blood glucose,KK-Ay mice [2]; 2 week,182 ± 9 mg/dL
same,Blood glucose,KK-Ay mice [2]; 3 week,166 ± 18 mg/dL
same,Blood glucose,KK-Ay mice [2]; 4 week,153 ± 21 mg/dL
same,Blood glucose,KK-Ay mice [2]; Start,151 ± 9 mg/dL
same,Blood glucose,KK-Ay mice [3]; Day 4,168 ± 49 mg/dL
same,Blood glucose,KK-Ay mice [3]; Day 7,143 ± 16 mg/dL
same,Blood glucose,"KK-Ay mice [3]; Start, hyperglycemic 15-week-old mice",378 ± 36 mg/dL
same,Blood glucose,KK-Ay mice [4]; 1 week,163 ± 23 mg/dL
same,Blood glucose,KK-Ay mice [4]; 2 week,182 ± 9 mg/dL
same,Blood glucose,KK-Ay mice [4]; 3 week,167 ± 18 mg/dL
same,Blood glucose,KK-Ay mice [4]; 4 week,153 ± 21 mg/dL
same,Blood glucose,KK-Ay mice [4]; Start,151 ± 9 mg/dL
same,Blood glucose,KK-Ay mice [5]; 1 week,208 ± 21 mg/dL
same,Blood glucose,KK-Ay mice [5]; 2 week,192 ± 17 mg/dL
same,Blood glucose,KK-Ay mice [5]; 3 week,164 ± 16 mg/dL
same,Blood glucose,KK-Ay mice [5]; Start,156 ± 16 mg/dL
"Cc1c(C)c2c(c(C)c1O)CCC(C)(COc1ccc(CC3SC(=O)NC3=O)cc1)O2 (stereo not shown) [Troglitazone, troglitazone]",Blood glucose,KK-Ay mice [6]; 1 week,217 ± 74 mg/dL
same,Blood glucose,KK-Ay mice [6]; 2 week,173 ± 40 mg/dL
same,Blood glucose,KK-Ay mice [6]; 3 week,304 ± 77 mg/dL
same,Blood glucose,KK-Ay mice [6]; 4 week,246 ± 51 mg/dL
same,Blood glucose,KK-Ay mice [6]; Start,145 ± 11 mg/dL
same,NEFA (serum free fatty acid),KK-Ay mice [6]; [7],1750 ± 302 μEq/L
same,T-CHO (serum total cholesterol),KK-Ay mice [6]; [7],163 ± 7 mg/dL
same,TG (serum triglyceride),KK-Ay mice [6]; [7],39 ± 14 mg/dL
same,A/G ratio,"KK-Ay mice [6]; mouse, in vivo",0.98 ± 0.05
same,ALB-S (albumin),"KK-Ay mice [6]; mouse, in vivo",2.50 ± 0.12 g/dL
same,GOT,"KK-Ay mice [6]; mouse, in vivo",121 ± 26 IU/L
same,GPT,"KK-Ay mice [6]; mouse, in vivo",70.5 ± 26.2 IU/L
same,LAP,"KK-Ay mice [6]; mouse, in vivo",60.8 ± 6.1 IU/L
same,TP-S (total protein),"KK-Ay mice [6]; mouse, in vivo",5.13 ± 0.17 g/dL
same,elevation in GOT compared with the non-treatment group,"KK-Ay mice [6]; mouse, in vivo",13%
same,ChoE (cholinesterase),"KK-Ay mice [6]; serum, end of 4-week feeding, troglitazone 0.2% or licorice extract 0.15% in food",153 ± 9 IU/L
